# Reference: US11274090B2, “P300/CBP HAT inhibitors” (Constellation Pharmaceuticals, Inc., priority 2018, dated 2022)
# Biological target: p300 HAT domain (residues 1287-1666) (Homo sapiens (Human), UniProt Q09472)
# Assay: p300 HAT SPA assay (scintillation proximity assay, acetylation of biotinylated H3(1-21) peptide)
# Type: biochemical
# Details: average of at least 2 replicate titrations
# Procedure: In a typical experiment the p300 HAT inhibitory activity of the compounds described herein was determined in accordance with the following experimental method.
# The expressed protein was purified by Ni2+ affinity, followed by anion exchange chromatography. Appropriate fractions were pooled and buffer exchanged into 20 mM Hepes pH 7.5, 150 mM NaCl, and 1 mM TCEP.
# 35 μL of the reaction volume was transferred to a 384-well streptavidin FlashPlate (PerkinElmer) using a Bravo liquid handler (Velocity 11) and incubated for 1.5 hr at RT. […] Data were analyzed in Genedata to determine inhibitor IC50 values.
# Chain of p300 HAT domain (residues 1287-1666) (Q09472 1287-1666): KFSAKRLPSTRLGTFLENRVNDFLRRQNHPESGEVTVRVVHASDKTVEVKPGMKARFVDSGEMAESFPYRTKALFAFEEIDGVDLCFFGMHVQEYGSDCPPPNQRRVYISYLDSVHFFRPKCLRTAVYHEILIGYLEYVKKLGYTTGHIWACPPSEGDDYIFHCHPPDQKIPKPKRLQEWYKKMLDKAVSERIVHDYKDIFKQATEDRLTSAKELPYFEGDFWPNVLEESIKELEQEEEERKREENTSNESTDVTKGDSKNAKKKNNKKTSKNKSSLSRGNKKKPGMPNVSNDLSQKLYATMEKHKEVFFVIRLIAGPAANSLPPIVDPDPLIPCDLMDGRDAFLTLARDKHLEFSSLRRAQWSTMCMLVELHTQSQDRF
row,IC50,SMILES
1,4990 nM,"Cn1cc(-c2ccc(NC(=O)[C@@H](NCCc3ccc(C#N)cc3)c3ccccc3)cc2)cn1 (single isomer, unassigned) [1 Isomer 1]"
2,279 nM,"Cc1cnc(-c2ccc(NC(=O)C(NCCc3ccc(C#N)cc3)c3ccccc3)cc2)[nH]1 (single isomer, unassigned) [11 Isomer 1]"
3,> 5000 nM,"Cc1cnc(-c2ccc(NC(=O)C(NCCc3ccc(C#N)cc3)c3ccccc3)cc2)[nH]1 (single isomer, unassigned) [11 Isomer 2]"
4,> 5000 nM,"N#Cc1ccc(CCNC(C(=O)Nc2ccc(-c3cccnn3)cc2)c2ccccc2)cc1 (single isomer, unassigned) [12 Isomer 1]"
5,> 5000 nM,"CN1CCN(c2ccc(NC(=O)[C@@H](NCCc3ccc(Cl)cc3)c3ccccc3)cc2)CC1 (single isomer, unassigned) [17 Isomer 2]"
6,> 5000 nM,"Cn1cc(-c2ncc(NC(=O)C(NCCc3ccc(C#N)cc3)c3ccccc3)cn2)cn1 (single isomer, unassigned) [23 Isomer 1]"
7,> 5000 nM,"Cn1cc(-c2ncc(NC(=O)C(NCCc3ccc(C#N)cc3)c3ccccc3)cn2)cn1 (single isomer, unassigned) [23 Isomer 2]"
8,> 5000 nM,"COc1cc(-c2cnn(C)c2)ccc1NC(=O)C(NCCc1ccc(C#N)cc1)c1ccccc1 (single isomer, unassigned) [24 Isomer 1]"
9,607 nM,"COc1cc(-c2cnn(C)c2)ccc1NC(=O)C(NCCc1ccc(C#N)cc1)c1ccccc1 (single isomer, unassigned) [24 Isomer 2]"
10,> 5000 nM,"COc1cc(NC(=O)C(NCCc2ccc(C#N)cc2)c2ccccc2)ccc1-c1cnn(C)c1 (single isomer, unassigned) [25 Isomer 2]"
11,1850 nM,"Cn1cc(-c2ccc(NC(=O)C(NCCc3ccc(C#N)cc3)c3ccccc3)c(Cl)c2)cn1 (single isomer, unassigned) [26 Isomer 2]"
12,> 5000 nM,"Cn1cc(-c2ccc(NC(=O)C(NCCc3ccc(C#N)cc3)c3ccccc3)cc2Cl)cn1 (single isomer, unassigned) [27 Isomer 2]"
13,> 5000 nM,"N#Cc1ccc(CCNC(C(=O)Nc2ccn(C3CCOCC3)n2)c2ccccc2)cc1 (single isomer, unassigned) [30 Isomer 1]"
14,> 5000 nM,"N#Cc1ccc(CCNC(C(=O)Nc2ccn(C3CCOCC3)n2)c2ccccc2)cc1 (single isomer, unassigned) [30 Isomer 2]"
15,> 2000 nM,"COC1CN(c2ccc(NC(=O)C(NCC(C)c3ccc(C#N)cc3)c3ccccc3)nc2)C1 (single isomer, unassigned) [32 Isomer 3]"

# Further lines, the molecule ahead of its results:
row,SMILES,IC50
1,"Cn1cc(-c2ccc(NC(=O)C(NCCc3c(F)cc(C#N)cc3F)c3ccccc3)nc2)cn1 (racemic) [86 racemic, (S)- and (R)-2-((4-cyano-2,6-difluorophenEthyl)amino)-N-(5-(1-methyl-1H-pyrazol-4-yl)pyridin-2-yl)-2-phenylacetamide]",169 nM
2,"CC(CNC(C(=O)Nc1ccc(-c2cnn(C)c2)cc1)c1ccccc1)c1ccc(Cl)cc1 (single isomer, unassigned) [2 Isomer 1]",> 5000 nM
3,"CC(CNC(C(=O)Nc1ccc(-c2cnn(C)c2)cc1)c1ccccc1)c1ccc(Cl)cc1 (single isomer, unassigned) [2 Isomer 3]",2740 nM
4,"CC(CNC(C(=O)Nc1ccc(-c2cnn(C)c2)cc1)c1ccccc1)c1ccc(Cl)cc1 (single isomer, unassigned) [2 Isomer 4]",> 5000 nM
5,"CC(Cc1ccc(Cl)cc1)NC(C(=O)Nc1ccc(-c2cnn(C)c2)cc1)c1ccccc1 (single isomer, unassigned) [3 Isomer 1]",196 nM
6,"CC(Cc1ccc(Cl)cc1)NC(C(=O)Nc1ccc(-c2cnn(C)c2)cc1)c1ccccc1 (single isomer, unassigned) [3 Isomer 2]",> 5000 nM
7,"CC(Cc1ccc(Cl)cc1)NC(C(=O)Nc1ccc(-c2cnn(C)c2)cc1)c1ccccc1 (single isomer, unassigned) [3 Isomer 3]",> 5000 nM
8,"CC(Cc1ccc(Cl)cc1)NC(C(=O)Nc1ccc(-c2cnn(C)c2)cc1)c1ccccc1 (single isomer, unassigned) [3 Isomer 4]",3890 nM
9,"Cn1cc(-c2ccc(NC(=O)C(NCCc3ccc(S(N)(=O)=O)cc3)c3ccccc3)cc2)cn1 (single isomer, unassigned) [4 Isomer 1]",4990 nM
10,"Cn1cc(-c2ccc(NC(=O)C(NCCc3ccc(S(N)(=O)=O)cc3)c3ccccc3)cc2)cn1 (single isomer, unassigned) [4 Isomer 2]",1370 nM
11,"Cn1cc(-c2ccc(NC(=O)[C@@H](NCCc3ccc(Cl)cc3)c3ccccc3)cc2)cn1 (single isomer, unassigned) [5 Isomer 2]",> 5000 nM
12,"CC(CNC(C(=O)Nc1ccc(-c2cnn(C(C)(C)CO)c2)cn1)c1ccccc1)c1ccc(C#N)cc1 (single isomer, unassigned) [8 Isomer 1]",309 nM
13,"CC(CNC(C(=O)Nc1ccc(-c2cnn(C(C)(C)CO)c2)cn1)c1ccccc1)c1ccc(C#N)cc1 (single isomer, unassigned) [8 Isomer 2]",1350 nM
14,"CC(CNC(C(=O)Nc1ccc(-c2cnn(C(C)(C)CO)c2)cn1)c1ccccc1)c1ccc(C#N)cc1 (single isomer, unassigned) [8 Isomer 3]",1230 nM
15,"CC(CNC(C(=O)Nc1ccc(-c2cnn(C(C)(C)CO)c2)cn1)c1ccccc1)c1ccc(C#N)cc1 (single isomer, unassigned) [8 Isomer 4]",19.6 nM
16,"Cc1cnc(-c2ccc(NC(=O)[C@@H](NCCc3ccc(Cl)cc3)c3ccccc3)cc2)[nH]1 (single isomer, unassigned) [9 Isomer 1]",> 5000 nM
17,"Cc1cnc(-c2ccc(NC(=O)[C@@H](NCCc3ccc(Cl)cc3)c3ccccc3)cc2)[nH]1 (single isomer, unassigned) [9 Isomer 2]",133 nM
18,"O=C(Nc1ccc(-c2cccnn2)cc1)C(NCCc1ccc(Cl)cc1)c1ccccc1 (single isomer, unassigned) [10 Isomer 1]",> 5000 nM
19,"O=C(Nc1ccc(-c2cccnn2)cc1)C(NCCc1ccc(Cl)cc1)c1ccccc1 (single isomer, unassigned) [10 Isomer 2]",580 nM
20,"Cc1ccc(-c2ccc(NC(=O)C(NCC(C)c3ccc(C#N)cc3)c3ccccc3)nc2)nn1 (single isomer, unassigned) [15 Isomer 1]",> 2000 nM
21,"Cc1ccc(-c2ccc(NC(=O)C(NCC(C)c3ccc(C#N)cc3)c3ccccc3)nc2)nn1 (single isomer, unassigned) [15 Isomer 2]",> 2000 nM
22,"Cc1ccc(-c2ccc(NC(=O)C(NCC(C)c3ccc(C#N)cc3)c3ccccc3)nc2)nn1 (single isomer, unassigned) [15 Isomer 3]",> 2000 nM
23,"Cc1cn(-c2ccc(NC(=O)[C@@H](NCCc3ccc(Cl)cc3)c3ccccc3)cc2)cn1 (single isomer, unassigned) [16 Isomer 2]",> 5000 nM
24,"Cn1cc(-c2ccc(NC(=O)C(NCCc3ccc(C#N)cc3F)c3ccccc3)nc2)cn1 (single isomer, unassigned) [29 Isomer 1]",22.9 nM
25,"Cn1cc(-c2ccc(NC(=O)C(NCCc3ccc(C#N)cc3F)c3ccccc3)nc2)cn1 (single isomer, unassigned) [29 Isomer 2]",2760 nM
26,"COC1CN(c2ccc(NC(=O)C(NCC(C)c3ccc(C#N)cc3)c3ccccc3)nc2)C1 (single isomer, unassigned) [32 Isomer 1]",> 2000 nM
27,"COC1CN(c2ccc(NC(=O)C(NCC(C)c3ccc(C#N)cc3)c3ccccc3)nc2)C1 (single isomer, unassigned) [32 Isomer 2]",18.8 nM
